Read-outs that look alike come from different tables or passages of the source.
Tests used:
[1] = target: T1, Recombinant murine C17,20 lyase (mLyase) (Mus musculus, UniProt P27786); test: Murine C17,20 lyase biochemical assay (DHEA formation, RIA/SPA, cytochrome b5 omitted); conditions: Table V
T1 construct: made in house; host or cells: Sf9 insect cells (baculovirus), by analogy ('in a similar manner'); enriched microsomes
T1 sequence (P27786 1-507): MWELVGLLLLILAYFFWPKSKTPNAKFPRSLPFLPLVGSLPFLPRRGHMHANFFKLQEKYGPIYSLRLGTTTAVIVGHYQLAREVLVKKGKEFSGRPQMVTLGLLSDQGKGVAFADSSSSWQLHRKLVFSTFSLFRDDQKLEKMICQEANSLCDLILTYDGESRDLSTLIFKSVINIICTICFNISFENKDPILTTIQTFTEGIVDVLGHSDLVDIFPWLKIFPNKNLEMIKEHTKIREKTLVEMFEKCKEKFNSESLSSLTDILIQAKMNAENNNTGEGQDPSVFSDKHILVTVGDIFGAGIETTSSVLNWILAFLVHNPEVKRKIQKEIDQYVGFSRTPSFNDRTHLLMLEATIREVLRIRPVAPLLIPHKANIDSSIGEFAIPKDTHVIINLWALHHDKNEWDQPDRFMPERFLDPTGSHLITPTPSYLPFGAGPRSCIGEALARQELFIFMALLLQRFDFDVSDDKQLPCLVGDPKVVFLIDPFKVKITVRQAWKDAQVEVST
Experimental: Recombinant human C17,20 lyase (hLyase) was expressed in (Sf9) cells, and hLyase enriched microsomes were prepared from cultures as described in the following reference: Baculovirus Expression of Bovine P450 in Sf9 Cells and Comparison with Expression in Yeast, Mammalian Cells, and E. Coli. Barnes H. J.; Jenkins, C. M.; Waterman, M. R., Archives of Biochemistry and Biophysics (1994) 315(2)489-494. Recombinant murine C17,20 lyase (mLyase) was prepared in a similar manner. hLyase and mLyase preparations were titrated using assay conditions to determine protein concentrations to be used for assays. […]
(§1) Enzymatic reactions were allowed to run for 2 h at rt with gentle agitation. […] The concentration of DHEA generated by hLyase was determined by radioimmunoassay (RIA) as described below.
(§2) 0.08 μCi ^3H-DHEA (1.6 μCi/mL) (NEN (NET814)) in scintillation proximity assay (SPA) buffer (100 mM Tris-HCl, pH 7.5, 50 mM NaCl, 0.5% BSA (Sigma A9647), 0.2% Tween 20) was added to each well. […] Mixtures were allowed to equilibrate with gentle agitation for 1 h followed by an overnight equilibration with no agitation. ^3H-DHEA bound to the SPA beads was determined by scintillation counting.
The concentration of DHEA generated in each reaction was calculated from raw data (CPM) and the standard curve. […]

[2] = test system: powdery mildew; test: Test against powdery mildew
[3] = target: T2, Recombinant human C17,20 lyase (hLyase) (Homo sapiens, UniProt P05093); test: Human C17,20 lyase biochemical assay (DHEA formation, RIA/SPA)
T2 construct: made in house; host or cells: Sf9 insect cells (baculovirus); hLyase-enriched microsomes
T2 sequence (P05093 1-508): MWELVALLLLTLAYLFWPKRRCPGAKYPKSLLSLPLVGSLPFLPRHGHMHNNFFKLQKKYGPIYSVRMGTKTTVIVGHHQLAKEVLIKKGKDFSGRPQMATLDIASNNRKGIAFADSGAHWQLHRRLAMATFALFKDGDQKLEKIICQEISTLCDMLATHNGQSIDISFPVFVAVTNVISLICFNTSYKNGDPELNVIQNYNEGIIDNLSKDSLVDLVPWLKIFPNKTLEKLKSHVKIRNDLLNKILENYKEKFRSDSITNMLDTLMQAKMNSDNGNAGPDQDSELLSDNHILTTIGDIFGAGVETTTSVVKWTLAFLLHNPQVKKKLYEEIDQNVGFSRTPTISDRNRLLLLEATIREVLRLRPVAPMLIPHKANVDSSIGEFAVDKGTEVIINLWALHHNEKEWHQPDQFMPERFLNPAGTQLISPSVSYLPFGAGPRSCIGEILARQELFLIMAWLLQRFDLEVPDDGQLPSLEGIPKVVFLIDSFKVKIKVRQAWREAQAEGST
Experimental: Recombinant human C17,20 lyase (hLyase) was expressed in (Sf9) cells, and hLyase enriched microsomes were prepared from cultures as described in the following reference: Baculovirus Expression of Bovine P450 in Sf9 Cells and Comparison with Expression in Yeast, Mammalian Cells, and E. Coli. Barnes H. J.; Jenkins, C. M.; Waterman, M. R., Archives of Biochemistry and Biophysics (1994) 315(2)489-494. Recombinant murine C17,20 lyase (mLyase) was prepared in a similar manner. hLyase and mLyase preparations were titrated using assay conditions to determine protein concentrations to be used for assays. Both mLyase and hLyase assays were run in an identical manner except that cytochrome b5 was omitted in the murine assays.
Test compounds were diluted […], serially in six steps, with 100% DMSO starting from 800 μM going to 51.2 nM reserving the first 2 columns for the generation of a standard curve. Each of these compound solutions in 100% DMSO was further diluted twenty fold in H2O to obtain compound concentrations ranging from 40 μM to 2.56 nM in 5% DMSO. […]
as §1, §2
The concentration of DHEA generated in each reaction was calculated from raw data (CPM) and the standard curve. The lyase inhibitory activity of each compound was determined as the concentration of DHEA generated in the presence of test compounds, expressed as a percent inhibition compared to the DHEA concentration generated in the absence of test compounds (1−(nM DHEA formed in the presence of test compound/nM DHEA formed in the absence of test compounds)×100).

[4] = read-out: inhibitory IC50 against C17,20 human lyase

| melting point [°C] | SMILES | IC50 [1] [nM] | IC50 [3, 4] [nM] | further results |
| --- | --- | --- | --- | --- |
| 165.5 to 170 | Cc1ccncc1-c1nc(Cc2ccc(Cl)cc2)cs1.Cl | – | – | – |
| – | Cc1ccncc1-c1nc(-c2ccc(Cl)cc2Cl)cs1 [2-[4-methyl-3-pyridyl)-4-(2,4-dichlorophenyl)thiazole] | 39.7 | 15 | % Inhibition against Powdery Mildew ([2]; *Statistically insignificant; listed as 2-[4-methyl-3-pyridyl)-4-(2,4dichlorophenyl)thiazole): devoid of activity; % Inhibition against Powdery Mildew ([2]; *Statistically insignificant, listed as drawing 261): 10%*; IC50 ([3]; Table V, read-out: Human Lyase IC50): 15.1 nM |
| – | Clc1ccc(-c2csc(-c3cccnc3)n2)c(Cl)c1 [2-(3-pyridyl)-4-(2,4-dichlorophenyl)thiazole, reference compound] | 1400 | 406 | % Inhibition against Powdery Mildew ([2]; *Statistically insignificant): 80% |
| 110 | Cc1sc(-c2cccnc2)nc1Nc1ccccc1 [Example 6] | – | – | – |
| 176.5 to 183.5 | Cl.Clc1ccc(-c2csc(-c3cnccc3Cl)n2)cc1 | – | – | – |
